In patent US20240114940A1, “SACCHARIDE COMPOSITIONS HAVING SUCROSE-LIKE CHARACTERISTICS AND RELATED METHODS” (priority 2021, published 2024):

Columns and labels:
Type in all cases: physicochemical
[1] = Breakdown products by GCMS after Maillard reaction in the presence of Histidine; conditions: 160° C.; for 2-Butanone concentration / 2-Propanone, 1-hydroxy- concentration / Diacetyl (2,3-Butanedione) concentration: Carbonyls/ketones; for Furan, 2-methyl- concentration / Furfural concentration: Furans; for Pyrazine, 2,5-diethyl- concentration / Pyrazine, 2,5-dimethyl- concentration / Pyrazine, 2-ethyl-5-methyl- concentration / Pyrazine, ethyl- concentration / Pyrazine, methyl- concentration: Pyrazines
Protocol: (§1) Controls were prepared addition of 1 mL of pH 7 buffer to the amino acids. The samples were rapidly heated to 160° C. and held at this temperature for 10 min. Samples were rapidly cooled afterwards, and absorbance at 500 nm was measured for each reaction mixture. Volatiles were analysed using gas chromatography mass spectrometry (GCMS) analysis. An Agilent Technologies 5975B Inert XL MSD gas chromatography, single quadruple mass spectrometer was used for analysis of volatiles. Samples were added to separate GCMS headspace vials and weighed. 0.03 g of 0.01% 3-heptanone in water was added and the vial was sealed for GCMS solid phase micro extraction (SPME) analysis. Samples were analysed in a randomized order. Samples were incubated and agitated at 250 RPM, at 60° C. for 15 min prior to SPME analysis of volatiles. The SPME fibre (50/30 DVB/CAR/PDMS, 23 Ga) extracted for 10 min, then thermally desorbed at 250° C. for 5 min. A 30 m×0.25 mm×0.25 μm HP-5MS column was used (Phenomenex, UK). Oven temperature settings: 31° C.-5 min, 5° C./min to 150° C., 30° C./min to 240° C. Inlet settings: 250° C., pressure 10.4 psi, flow 11.2 mL/min, split ratio 7:1. MS operated in full scan mode from 40 to 400 m/z with a scan time of 0.2s. The peak area of the aroma compounds was compared to the peak of the internal standard 3-heptanone and corrected for the weight of the sample.
(§2) The concentration of the different classes of Maillard reaction breakdown products is presented in Tables 9B-E. The same data as Tables 9B-E is also presented in FIG. 27. Concentrations are in parts per billion of the difference non-enzymatic breakdown products for the different compositions at 160° C. analysed by GCMS.

[2] = Breakdown products by GCMS after Maillard reaction in the presence of Leucine; conditions: Maillard reaction in the presence of Leucine, 160° C., GCMS; for 2-Butanone concentration / 2-Propanone, 1-hydroxy- concentration / Diacetyl (2,3-Butanedione) concentration: Carbonyls/ketones; for Furan, 2-methyl- concentration / Furfural concentration: Furans; for Pyrazine, 2,5-diethyl- concentration / Pyrazine, 2,5-dimethyl- concentration / Pyrazine, 2-ethyl-5-methyl- concentration / Pyrazine, ethyl- concentration / Pyrazine, methyl- concentration: Pyrazines; for Isovaleraldehyde (Butanal, 3-methyl-) concentration: Strecker aldehydes
Protocol: as §1, §2

[3] = Breakdown products by GCMS after Maillard reaction in the presence of Tryptophan; conditions: with Tryptophan, pH 7, 160° C., 10 min
Protocol: as §1, §2

[4] = Breakdown products by GCMS without an amino acid present; conditions: pH 7, 160° C., 10 min
Protocol: as §1, §2

2-Butanone concentration [1] [ppb] | 2-Propanone, 1-hydroxy- concentration [1] [ppb] | Diacetyl (2,3-Butanedione) concentration [1] [ppb] | Furan, 2-methyl- concentration [1] [ppb] | Furfural concentration [1] [ppb] | Pyrazine, 2,5-diethyl- concentration [1] [ppb] | Pyrazine, 2,5-dimethyl- concentration [1] [ppb] | Pyrazine, 2-ethyl-5-methyl- concentration [1] [ppb] | Pyrazine, ethyl- concentration [1] [ppb] | Pyrazine, methyl- concentration [1] [ppb] | 2-Butanone concentration [2] [ppb] | 2-Propanone, 1-hydroxy- concentration [2] [ppb] | Diacetyl (2,3-Butanedione) concentration [2] [ppb] | Furan, 2-methyl- concentration [2] [ppb] | Furfural concentration [2] [ppb] | Pyrazine, 2,5-diethyl- concentration [2] [ppb] | Pyrazine, 2,5-dimethyl- concentration [2] [ppb] | Pyrazine, 2-ethyl-5-methyl- concentration [2] [ppb] | Pyrazine, ethyl- concentration [2] [ppb] | Pyrazine, methyl- concentration [2] [ppb] | SMILES | other results
1.25 | 0 | 2.2 | 0 | 0.02 | 0 | 0 | 0.38 | 0 | 0 |  |  |  |  |  |  |  |  |  |  | N[C@@H](Cc1c[nH]cn1)C(=O)O [Histidine] | 
 |  |  |  |  |  |  |  |  |  | 2.04 | 0.23 | 3.75 | 0 | 0.03 | 0 | 0 | 1 | 0 | 0 | CC(C)C[C@H](N)C(=O)O [Leucine] | Isovaleraldehyde (Butanal, 3-methyl-) concentration [2]: 1.56 ppb
 |  |  |  |  |  |  |  |  |  |  |  |  |  |  |  |  |  |  |  | N[C@@H](Cc1c[nH]c2ccccc12)C(=O)O [Tryptophan] | Concentration of 2-Butanone [3]: 0.56 ppb; Concentration of 2-Propanone, 1-hydroxy- [3]: 0.05 ppb; Concentration of Diacetyl (2,3-Butanedione) [3]: 2.08 ppb; Concentration of Furan, 2-methyl- [3]: 0 ppb; Concentration of Furan, 2-pentyl- [3]: 0.03 ppb; Concentration of Furfural [3]: 0.02 ppb; Concentration of Indole [3]: 8.55 ppb; Concentration of Pyrazine, 2,5-diethyl- [3]: 0 ppb; Concentration of Pyrazine, 2,5-dimethyl- [3]: 0 ppb; Concentration of Pyrazine, 2-ethyl-5-methyl- [3]: 0.26 ppb; Concentration of Pyrazine, ethyl- [3]: 0 ppb; Concentration of Pyrazine, methyl- [3]: 0 ppb
53.5 | 196.75 | 32.61 | 28.4 | 15.26 | 17.88 | 587.06 | 288.64 | 4.48 | 5.22 | 212.85 | 647.73 | 458.75 | 170.12 | 118.44 | 84.11 | 2510.13 | 1146.75 | 59.9 | 496.33 | O=C[C@H](O)[C@@H](O)[C@H](O)CO [Xylose] | Isovaleraldehyde (Butanal, 3-methyl-) concentration [2]: 15873.58 ppb; Concentration of 2-Butanone [4]: 75.3 ppb; Concentration of 2-Propanone, 1-hydroxy- [4]: 196.36 ppb; Concentration of 5-methyl furfural [4]: 27.19 ppb; Concentration of Diacetyl (2,3-Butanedione) [4]: 267.18 ppb; Concentration of Furan, 2-methyl- [4]: 7.83 ppb; Concentration of Furfural [4]: 65.56 ppb; Concentration of 2-Butanone [3]: 70.81 ppb; Concentration of 2-Propanone, 1-hydroxy- [3]: 227.11 ppb; Concentration of Diacetyl (2,3-Butanedione) [3]: 55.57 ppb; Concentration of Furan, 2-methyl- [3]: 52.32 ppb; Concentration of Furan, 2-pentyl- [3]: 6.28 ppb; Concentration of Furfural [3]: 0.15 ppb; Concentration of Indole [3]: 53.49 ppb; Concentration of Pyrazine, 2,5-diethyl- [3]: 25 ppb; Concentration of Pyrazine, 2,5-dimethyl- [3]: 751.39 ppb; Concentration of Pyrazine, 2-ethyl-5-methyl- [3]: 394.72 ppb; Concentration of Pyrazine, ethyl- [3]: 13.61 ppb; Concentration of Pyrazine, methyl- [3]: 59.72 ppb
